For one experiment, the target named is GLP-1R (Homo sapiens, UniProt P43220). Put plainly: Whole-cell binding assay, competition with 125I-GLP-1(7-36)NH2. More on the design: Flag; expressed in transfected cells. The procedure: (§1) Human embryonic kidney 293 cells containing SV40 large T-antigen (HEK293T) were cultured in DMEM (Gibco) supplemented with 10% (v/v) fetal bovine serum (FBS, Gibco), 1 mM sodium pyruvate (Gibco) and 100 units/mL penicillin and 100 μg/mL streptomycin at 37 °C in 5% CO2. Chinese hamster ovary (CHO-K1) cells were cultured in F-12 (Gibco) containing 10% FBS, 100 units/mL penicillin and 100 μg/mL streptomycin at 37 °C in 5% CO2. For cAMP and receptor expression assays, HEK293T cells were seeded into 6-well cell culture plates at a density of 7 × 10^5 cells per well. After overnight incubation, cells were transfected with GIPR, GLP-1R or GCGR construct using Lipofectamine 2000 or Lipofectamine 3000 transfection reagent (Invitrogen). For whole-cell binding assay, CHO-K1 cells were seeded into 96-well fibronectin-treated cell culture plates at a density of 3 × 10^4 cells per well. After overnight incubation, cells were transfected with GIPR, GLP-1R or GCGR construct using Lipofectamine 2000 transfection reagent (Invitrogen). Following 24 h culturing, the transfected cells were ready for use.
For GLP-1R and GCGR, CHO-K1 cells (30,000 cells/well) were seeded into Isoplate-96 plates and incubated for 24 h at 37 °C in 5% CO2. The WT or mutant constructs were transiently transfected using Lipofectamine 2000 transfection reagent as previous described. They were then washed twice using F-12 with 0.1% BSA or 0.1% casein, 33 mM HEPES, and incubated for 2 h at 37 °C. […] Cells were washed three times with ice-cold PBS and lysed in PBS with 1% Triton X-100, 20 mM Tris-HCl. After addition of scintillation cocktail (PerkinElmer), radioactivity (CPM) was counted on a MicroBeta^2 microplate counter (PerkinElmer). Data were normalized to the WT response and analyzed using three-parameter logistic equation.

Experiment [1] has as its target T1, GIPR (Homo sapiens, UniProt P48546).
T1 sequence (P48546 22-466): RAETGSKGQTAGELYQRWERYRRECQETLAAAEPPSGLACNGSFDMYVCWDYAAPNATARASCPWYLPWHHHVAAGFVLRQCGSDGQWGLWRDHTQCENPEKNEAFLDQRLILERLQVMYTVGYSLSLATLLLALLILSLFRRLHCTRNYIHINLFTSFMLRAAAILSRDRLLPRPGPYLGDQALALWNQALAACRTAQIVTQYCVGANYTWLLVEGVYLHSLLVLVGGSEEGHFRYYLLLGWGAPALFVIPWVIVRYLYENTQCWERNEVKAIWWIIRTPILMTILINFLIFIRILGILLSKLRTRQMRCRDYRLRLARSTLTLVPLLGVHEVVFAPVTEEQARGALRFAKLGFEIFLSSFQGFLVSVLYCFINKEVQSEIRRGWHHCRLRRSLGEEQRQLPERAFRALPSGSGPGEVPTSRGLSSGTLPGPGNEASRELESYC
Put plainly: Whole-cell binding assay, competition with 125I-GIP1-42. On the set-up: acylated tirzepatide to the full-length or modified; Flag; expressed in transfected cells. The protocol:
as §1
For GIPR, CHO-K1 cells were cultured in F-12 medium with 10% FBS and seeded at a density of 30,000 cells/well in Isoplate-96 plates (PerkinElmer). The WT or mutant GIPR was transiently transfected using Lipofectamine 2000 transfection reagent as previous described. They were then washed twice using F-12 with 0.1% BSA or 0.1% casein, 33 mM HEPES, and incubated for 2 h at 37 °C. […] Following incubation, cells were washed three times with ice-cold PBS and lysed by addition of 50 μL lysis buffer (PBS supplemented with 20 mM Tris-HCl, 1% Triton X-100, pH 7.4). Fifty µL of scintillation cocktail (OptiPhase SuperMix, PerkinElmer) were added and the plates were subsequently counted for radioactivity (counts per minute, CPM) in a MicroBeta^2 microplate counter (PerkinElmer).

The target of experiment [2] is T1, GIPR. The experiment in a line: cAMP accumulation assay (LANCE Ultra cAMP kit), GIPR WT, mutant or modified constructs. It counts as cell-based. More on the design: acylated tirzepatide to the full-length or modified; Flag; expressed in transfected cells; host or cells: HEK293T. Particulars: HEK293T; for Emax: HEK-293T. The protocol:
as §1
A BRIL fusion protein was added at the N-terminal of the ECD with a TEV protease site and 2GSA linker between them. C-terminal 45 amino acids (Q422-C466) of the receptor were truncated. LgBiT was added at the end of helix 8 with a 15-amino acid (15AA) polypeptide linker in between, followed by a TEV protease cleavage site and an OMBP-MBP tag. […] The construct and various mutants of human GIPR were cloned into pcDNA3.1 vector for cAMP accumulation and whole-cell binding assays.
For GIPR, GLP-1R and GCGR, multi-targeting agonist stimulated cAMP accumulation was measured by a LANCE Ultra cAMP kit (PerkinElmer). After 24 h culture, the transfected cells were seeded into 384-well microtiter plates at a density of 3,000 cells per well in HBSS supplemented with 5 mM HEPES, 0.1% (w/v) BSA or 0.1% (w/v) casein and 0.5 mM 3-isobutyl-1-methylxanthine. The cells were stimulated with different concentrations of peptide agonists for 40 min at RT. Eu-cAMP tracer and ULight^TM-anti-cAMP were then diluted by cAMP detection buffer and added to the plates separately to terminate the reaction. Plates were incubated at RT for 1 h and the fluorescence intensity measured at 620 nm and […] by an EnVision multilabel plate reader (PerkinElmer).
A general note: cAMP levels reflect the balance of adenylyl cyclase and phosphodiesterase activity.

Data on one compound can be found in paper PMC8881610 (Nature Communications, 2022).

Values joined by “and” are separate entries in the source; they are usually repeats but may differ in a detail not shown here. Equal entries are not always repeated. Where two headings read alike, the source gives them in different places.

By Emax is commonly meant the maximal effect, on the per cent scale that the assay sets.

GLP-1R, sequence (P43220 24-463): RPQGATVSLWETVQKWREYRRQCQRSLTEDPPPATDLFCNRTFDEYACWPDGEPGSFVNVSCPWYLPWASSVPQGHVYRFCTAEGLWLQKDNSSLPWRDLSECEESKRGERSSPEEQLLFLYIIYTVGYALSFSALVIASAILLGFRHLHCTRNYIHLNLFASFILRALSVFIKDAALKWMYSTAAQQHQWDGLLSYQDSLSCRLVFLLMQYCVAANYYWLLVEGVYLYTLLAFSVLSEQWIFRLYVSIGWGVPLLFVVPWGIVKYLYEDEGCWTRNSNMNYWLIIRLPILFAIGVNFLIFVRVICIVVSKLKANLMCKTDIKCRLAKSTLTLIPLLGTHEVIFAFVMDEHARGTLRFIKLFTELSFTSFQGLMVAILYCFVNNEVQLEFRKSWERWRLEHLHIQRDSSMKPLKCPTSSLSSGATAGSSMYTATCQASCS

As for `CCCCCCCCCCCCCCCC(=O)N[C@@H](CCC(=O)NCCCC[C@H](NC(=O)[C@H](CC(=O)O)NC(=O)[C@H](CO)NC(=O)[C@@H](NC(=O)[C@H](Cc1ccccc1)NC(=O)[C@@H](NC(=O)CNC(=O)[C@H](CCC(N)=O)NC(=O)C(C)(C)NC(=O)[C@@H](N)Cc1c[nH]cn1)[C@@H](C)O)[C@@H](C)O)C(=O)N[C@@H](CO)C(=O)N[C@@H](CCCCN)C(=O)N[C@@H](Cc1ccc(O)cc1)C(=O)N[C@@H](CC(C)C)C(=O)N[C@@H](CC(=O)O)C(=O)N[C@@H](CCC(=O)O)C(=O)N[C@@H](CCCNC(=N)N)C(=O)N[C@@H](C)C(=O)N[C@@H](C)C(=O)N[C@@H](CCC(N)=O)C(=O)N[C@@H](CC(=O)O)C(=O)N[C@@H](Cc1ccccc1)C(=O)N[C@H](C(=O)N[C@@H](CCC(N)=O)C(=O)N[C@@H](Cc1c[nH]c2ccccc12)C(=O)N[C@@H](CC(C)C)C(=O)N[C@@H](CC(C)C)C(=O)N[C@@H](CC(=O)O)C(=O)NCC(=O)NCC(=O)N1CCC[C@H]1C(=O)N[C@@H](CO)C(=O)N[C@@H](CO)C(=O)NCC(=O)N[C@@H](C)C(=O)N1CCC[C@H]1C(=O)N1CCC[C@H]1C(=O)N1CCC[C@H]1C(=O)N[C@@H](CO)C(N)=O)C(C)C)C(=O)O` [Peptide 20], the IC50 on GLP-1R (Fig. 7c receptor binding profile, n = 3 in duplicate, SEM, read-out: GLP-1R (pIC50 ± S.E.M.) (converted)) was 3.39 nM; at GLP-1R (GLP-1R WT, CHO-K1, read-out: binding pIC50 (converted)), 6.17 nM; at GIPR [1] (Fig. 7c receptor binding profile, n = 3 in duplicate, SEM, read-out: GIPR (pIC50 ± S.E.M.) (converted)), 6.61 nM; at GIPR [1] (GIPR WT, 0.1% BSA, CHO-K1, read-out: Binding pIC50 (converted)), 13.2 nM; at GIPR [1] (GIPR WT, 0.1% casein, CHO-K1, read-out: Binding pIC50 (converted)), 3.39 nM; at GIPR [1] (GIPR WT, CHO-K1, read-out: binding pIC50 (converted)), 18.2 nM and 10.7 nM. For the same compound, the “binding Span” value is listed as 85.25 ± 8.33 at GLP-1R (GLP-1R WT, 0.1% casein, CHO-K1); 99.44 ± 2.88 % WT on GLP-1R (GLP-1R WT, CHO-K1); 99.92 ± 6.37 at GIPR [1] (GIPR WT, 0.1% casein, CHO-K1); 97.43 ± 3.89 % WT on GIPR [1] (GIPR WT, CHO-K1). The EC50 is 0.0135 nM at GIPR [2] (GIPR WT, read-out: cAMP pEC50 (converted)) and 0.00447 nM on GIPR [2] (GIPR, n = 4, SEM, read-out: cAMP pEC50 ± S.E.M. (converted)). Besides, the Emax worked out at 99.9 ± 1.18% at GIPR [2] (GIPR WT, 0.1% BSA, read-out: cAMP accumulation Emax); 100 ± 1.51% on GIPR [2] (GIPR WT, 0.1% casein, read-out: cAMP accumulation Emax); 99.2 ± 1.85% on GIPR [2] (GIPR WT, read-out: cAMP Emax); 100 ± 1.48% at GIPR [2] (GIPR, n = 4, SEM, read-out: cAMP Emax ± S.E.M.).
